EPA's ToxValDB 9.5 (doi:10.2903/j.efsa.2011.2018)
In brackets after ≈: the same amount, converted by molar mass.

Tests used:
Aphidius rhopalosiphi = experiment: LR50; higher = less toxic; settings: not reported; mortality
Apis mellifera = settings: acute; duration: 48 hours; dermal; mortality
Tagia sp. = settings: acute; duration: 14 days; mortality
Folsomia candida = settings: chronic/long-term; duration: 28 days; mortality
Anas platyrhynchos = settings: short-term; oral; feed; mortality
Lepomis macrochirus = settings: acute; duration: 96 hours; mortality

With `[O-][n+]1nc(-n2ccnc2)nc2ccc(Cl)cc21` [Triazoxide] the LR50 (Aphidius rhopalosiphi) was > 5.13 g/ha, the LD50 (Coturnix japonica; acute, oral, mortality) was 90 mg/kg-day and the NOEC (Coturnix japonica; reproduction developmental, duration: 6 weeks) was 11.7 mg/kg-day. The LD50 (Apis mellifera) was > 200 µg/piece, the LC50 (Tagia sp.) was > 1000 mg/kg and the NOEC (Folsomia candida) was 500 mg/kg. For the same compound, the LC50 (Anas platyrhynchos) was 268 mg/kg-day, the LD50 (Rattus norvegicus; acute, oral, mortality) was 14 mg/kg-day and the LOAEL (Rattus norvegicus; chronic, duration: 2 years, gross pathology) was 0.05 mg/kg-day. For the same compound, the NOEL (Rattus norvegicus; reproduction developmental, no effects) was 2.04 mg/kg-day, the NOAEL (Rattus norvegicus; short-term, duration: 28 days) was 1.5 mg/kg-day and the NOAEL (Rattus norvegicus; subchronic, duration: 90 days, oral, hematological) was 0.21 mg/kg-day. For the same compound, the LC50 (Lepomis macrochirus) was 0.077 µg/mL (≈ 0.311 µM).
